Where a name gives a salt, the structure may show the parent alone.

Assay [1] deals with rat kidneys. Put plainly: Light microscopy histology of isolated rat kidneys perfused 12 hours at 37° C. with L-15. Particulars: for histological preservation as assessed by light microscopy (screen of pharmacological agents): agent added to L-15 perfusate, 12-hour perfusion at 37° C.; for histology at the light microscopic level / histology score (0 = unrecognizable micro-structure, 10 = 30-minute flushed kidney), FIG. 1: mannitol 20 grams/L, gemfibrozil 50 mg/L, 12-hour perfusion; for histology at the light microscopic level: vs L-15 alone; for histology score (0 = unrecognizable micro-structure, 10 = 30-minute flushed kidney), FIG. 1: blinded observer. The procedure: Animals. Male Sprague-Dawley rats, 15 to 20 weeks-of-age, were housed in a University of Pittsburgh Medical Center animal care facility (temperature 22 EC; light cycle 12 hours; relative humidity 55%). Animals were fed Pro Laboratory RMH 3000 rodent diet (PMI Nutrition Inc., St. Louis, Mo.) and were given water ad libitum. Institutional guidelines for animal welfare were followed, and the Institutional Animal Care and Use Committee approved experimental protocols.
Preparation of Perfusion System. Due to bacterial infection associated with chronic kidney perfusion at 37° C., rat kidneys were perfused in a sterile environment. A glass perfusion system (Hugo Sachs Elektronik-Harvard Apparatus GmbH), which allowed for autoclaving and ultraviolet-light sterilization without damage to the structural integrity of the system, was used in all experiments. This system included the following components arranged in series: a jacketed glass perfusate reservoir for warming and initial oxygenation of perfusate; a jacketed glass-oxygenator for additional oxygenation; a Windkessel chamber for absorption of pulsations; a jacketed heat exchanger for warming the perfusate and trapping bubbles just before the perfusate enters the kidney; and a jacketed organ chamber to keep the kidney's surrounding environment at 37° C.
Drug Preparation. Leibovitz L-15 cell culture medium (Sigma, St. Louis, Mo.) was mixed according to the manufacture's specifications to make 2 liters and 120 mg of penicillin was added. The pH of one liter of L-15 was adjusted to 7.4, and this solution was used during the kidney isolation procedure. The other liter was further prepared with addition of various pharmacological agents, and then the pH adjusted to 7.4. Both solutions were then filtered (0.22 microns) into 1 liter containers. The solution with the experimental drug was then perfused through the kidney perfusion system at a rate of 2.6 ml/min. The other solution was placed underneath the hood where the surgery was to be done.
Kidney Isolation. Kidneys were isolated under a laminar flow hood (Labconco) fitted with a separate roller pump. The operator used sterilized latex gloves with frequent application of 75% alcohol to gloves and instruments throughout the course of the surgery. Gloves were replaced anytime the operator's hands left the surgical hood. Animals were anesthetized with Inactin (90 mg/kg, ip; Sigma), the abdomen was shaved, washed with 75% alcohol, and covered with autoclaved paper towels. The tubing, which would eventually be required for isolation, was assembled and placed in the roller pump. This tubing consisted of three sequentially smaller sections, the middle of which was the pump tubing (Harvard Apparatus). The smallest of the sections was linked, using an adaptor connector, to PE-50 tubing (which had been previously soaked in alcohol for at least 2 days). This PE-50 tubing was for insertion into the renal artery. The largest size tubing was placed into the 1 liter of room temperature L-15. The pump was turned on for a brief time, allowing all tubing to be filled with L-15 medium to remove all air bubbles from the tubing. The skin covering the abdominal cavity was cut horizontally. A light spray of alcohol was applied to the area to remove pieces of hair, followed by a horizontal cut in the same area through the muscle; exposing the internal organs. A section of sterile gauze was set to the left of the animal, and the large/small intestines were gently pulled out of the abdominal cavity and wrapped in the gauze. […] All side branches of the renal artery and vein were ligated and cut. Next, the aorta, vena cava, renal artery and renal vein were identified, cleaned of fat and connective tissue and dissected free, and ligatures were loosely placed around these vessels. […]

Assay [2] relates to rat kidney tissue. Put plainly: Electron microscopy of isolated rat kidneys perfused 12 hours with L-15. Particulars: one kidney per group; mannitol 20 grams/L, gemfibrozil 50 mg/L; vs L-15 alone. The method, then: Drug Preparation. Leibovitz L-15 cell culture medium (Sigma, St. Louis, Mo.) was mixed according to the manufacture's specifications to make 2 liters and 120 mg of penicillin was added. The pH of one liter of L-15 was adjusted to 7.4, and this solution was used during the kidney isolation procedure. The other liter was further prepared with addition of various pharmacological agents, and then the pH adjusted to 7.4. Both solutions were then filtered (0.22 microns) into 1 liter containers. The solution with the experimental drug was then perfused through the kidney perfusion system at a rate of 2.6 ml/min. The other solution was placed underneath the hood where the surgery was to be done. Kidney Isolation. Kidneys were isolated under a laminar flow hood (Labconco) fitted with a separate roller pump. The operator used sterilized latex gloves with frequent application of 75% alcohol to gloves and instruments throughout the course of the surgery. Gloves were replaced anytime the operator's hands left the surgical hood. Animals were anesthetized with Inactin (90 mg/kg, ip; Sigma), the abdomen was shaved, washed with 75% alcohol, and covered with autoclaved paper towels. The tubing, which would eventually be required for isolation, was assembled and placed in the roller pump. This tubing consisted of three sequentially smaller sections, the middle of which was the pump tubing (Harvard Apparatus). The smallest of the sections was linked, using an adaptor connector, to PE-50 tubing (which had been previously soaked in alcohol for at least 2 days). This PE-50 tubing was for insertion into the renal artery. The largest size tubing was placed into the 1 liter of room temperature L-15. The pump was turned on for a brief time, allowing all tubing to be filled with L-15 medium to remove all air bubbles from the tubing. The skin covering the abdominal cavity was cut horizontally. A light spray of alcohol was applied to the area to remove pieces of hair, followed by a horizontal cut in the same area through the muscle; exposing the internal organs. A section of sterile gauze was set to the left of the animal, and the large/small intestines were gently pulled out of the abdominal cavity and wrapped in the gauze. […] All side branches of the renal artery and vein were ligated and cut. Next, the aorta, vena cava, renal artery and renal vein were identified, cleaned of fat and connective tissue and dissected free, and ligatures were loosely placed around these vessels. The infra-renal aorta was ligated, a small clamp was placed on the aorta just above the ligation but below the renal artery, a cut was made between the clamp and ligation, and the PE-50 tubing was inserted, secured with a ligature and advanced into the left renal artery. […]

Assay [3] concerns Na+-K+-ATPase-α1. Put plainly: Western blotting and densitometry of Na+-K+-ATPase-α1 in 12-hour perfused rat kidneys. Conditions: mannitol 20 grams/L, gemfibrozil 50 mg/L; 12-hour perfusion. The method, then:
(§1) Drug Preparation. Leibovitz L-15 cell culture medium (Sigma, St. Louis, Mo.) was mixed according to the manufacture's specifications to make 2 liters and 120 mg of penicillin was added. The pH of one liter of L-15 was adjusted to 7.4, and this solution was used during the kidney isolation procedure. The other liter was further prepared with addition of various pharmacological agents, and then the pH adjusted to 7.4. Both solutions were then filtered (0.22 microns) into 1 liter containers. The solution with the experimental drug was then perfused through the kidney perfusion system at a rate of 2.6 ml/min. The other solution was placed underneath the hood where the surgery was to be done. Kidney Isolation. Kidneys were isolated under a laminar flow hood (Labconco) fitted with a separate roller pump. The operator used sterilized latex gloves with frequent application of 75% alcohol to gloves and instruments throughout the course of the surgery. Gloves were replaced anytime the operator's hands left the surgical hood. Animals were anesthetized with Inactin (90 mg/kg, ip; Sigma), the abdomen was shaved, washed with 75% alcohol, and covered with autoclaved paper towels. The tubing, which would eventually be required for isolation, was assembled and placed in the roller pump. This tubing consisted of three sequentially smaller sections, the middle of which was the pump tubing (Harvard Apparatus). […]
(In general: A western blot detects proteins with antibodies after separation by electrophoresis.)

Assay [4] deals with rat kidneys. Put plainly: Perfusion pressure of isolated perfused rat kidney over 12 hours. Conditions: mannitol 20 grams/L, gemfibrozil 50 mg/L. The method, then: Drug Preparation. Leibovitz L-15 cell culture medium (Sigma, St. Louis, Mo.) was mixed according to the manufacture's specifications to make 2 liters and 120 mg of penicillin was added. The pH of one liter of L-15 was adjusted to 7.4, and this solution was used during the kidney isolation procedure. The other liter was further prepared with addition of various pharmacological agents, and then the pH adjusted to 7.4. Both solutions were then filtered (0.22 microns) into 1 liter containers. The solution with the experimental drug was then perfused through the kidney perfusion system at a rate of 2.6 ml/min. The other solution was placed underneath the hood where the surgery was to be done. Kidney Isolation. Kidneys were isolated under a laminar flow hood (Labconco) fitted with a separate roller pump. The operator used sterilized latex gloves with frequent application of 75% alcohol to gloves and instruments throughout the course of the surgery. Gloves were replaced anytime the operator's hands left the surgical hood. Animals were anesthetized with Inactin (90 mg/kg, ip; Sigma), the abdomen was shaved, washed with 75% alcohol, and covered with autoclaved paper towels. The tubing, which would eventually be required for isolation, was assembled and placed in the roller pump. This tubing consisted of three sequentially smaller sections, the middle of which was the pump tubing (Harvard Apparatus). The smallest of the sections was linked, using an adaptor connector, to PE-50 tubing (which had been previously soaked in alcohol for at least 2 days). This PE-50 tubing was for insertion into the renal artery. The largest size tubing was placed into the 1 liter of room temperature L-15. The pump was turned on for a brief time, allowing all tubing to be filled with L-15 medium to remove all air bubbles from the tubing. The skin covering the abdominal cavity was cut horizontally. A light spray of alcohol was applied to the area to remove pieces of hair, followed by a horizontal cut in the same area through the muscle; exposing the internal organs. […]

Assay [5] has as its system rat kidneys. Put plainly: Urine collection from isolated perfused rat kidney. Conditions: 12 hours of perfusion; mannitol 20 grams/L, gemfibrozil 50 mg/L. The method, then:
as §1

For assay [6], the system named is rat kidneys. Kind of assay: Apoptag (TUNEL) staining for apoptosis in 12-hour perfused rat kidneys. Conditions: mannitol 20 grams/L, gemfibrozil 50 mg/L; vs L-15 alone. The procedure:
as §1

Consider `O=c1[nH]c(=O)c2[nH]c(=O)[nH]c2[nH]1` [uric acid], for which the “histological preservation as assessed by light microscopy (screen of pharmacological agents)” value (“histological preservation as assessed” for short) in assay [1] is listed as “mild protection”.
The same measure, in the same setting: under `C[C@]12CCC(=O)C=C1CC[C@@H]1[C@@H]2[C@@H](O)C[C@]2(C=O)[C@@H](C(=O)CO)CC[C@@H]12` [Aldosterone, aldosterone] stands “mild protection”.
On to `Cc1ccc(C)c(OCCCC(C)(C)C(=O)O)c1` [gemfibrozil], for which, in assay [1], the “histological preservation as assessed” value is given as “moderate histological preservation”; the “histology at the light microscopic level” value is “modestly improved”; the “histology score (0 = unrecognizable micro-structure, 10 = 30-minute flushed kidney), FIG. 1” value is listed as “statistically significantly improved the histological score”. Besides, in assay [2], the “glomerular ultrastructure (electron microscopy)” value was “slightly improved” and the “tubular ultrastructure (electron microscopy)” value is listed as “only marginally better”. Moreover, in assay [3], the “Na+-K+-ATPase-α1 expression normalized to β-actin, FIG. 2” value is given as “slightly higher”. Besides, the “rapid increase in perfusion pressure observed in L-15 alone kidneys, FIG. 3” value in assay [4] is given as “delayed”. In addition, in assay [5], the “total urine volume, FIG. 4C” value is listed as “increased total urine volume”. Besides, in assay [6], the “degree of apoptosis (Apoptag staining)” value is “reduced the degree of apoptosis”.
Regarding `OC[C@@H](O)[C@@H](O)[C@H](O)[C@H](O)CO` [mannitol], in assay [1], the “histological preservation as assessed” value is reported as “moderate histological preservation”; the “histology at the light microscopic level” value was “modestly improved”; the “histology score (0 = unrecognizable micro-structure, 10 = 30-minute flushed kidney), FIG. 1” value is “did not achieve statistical significance”. For the same compound, in assay [2], the “glomerular ultrastructure (electron microscopy)” value is “slightly improved” and the “tubular ultrastructure (electron microscopy)” value is recorded as “only marginally better”. For the same compound, the “Na+-K+-ATPase-α1 expression normalized to β-actin, FIG. 2” value in assay [3] was “nearly undetectable”. In addition, the “rapid increase in perfusion pressure observed in L-15 alone kidneys, FIG. 3” value in assay [4] is reported as “more so”. Further, the “initial renal perfusion pressure, FIG. 3” value in assay [4] (L-15 alone approximately 50 mm Hg) was “approximately 25 mm Hg”. Besides, the “total urine volume, FIG. 4C” value in assay [5] is “increased total urine volume”. The “degree of apoptosis (Apoptag staining)” value in assay [6] is “reduced the degree of apoptosis”.
In the case of `Nc1cc(N2CCCCC2)nc(N)[n+]1OS(=O)(=O)[O-]` [minoxidil sulfate], the “histological preservation as assessed” value in assay [1] is recorded as “mild protection”.
Still for that read-out and setting: under `NC(=O)c1cccc(N)c1` [3-aminobenzamide] stands “mild protection”.

For the origin of these results see patent publication US7897326B2, “Peroxisome-proliferator activated receptor-alpha agonists for organ preservation” (University of Pittsburgh-of the Commonwealth System of …, priority 2006, dated 2011).
